Data set [1] concerns the target T1, Thymidylate kinase (Mycobacterium tuberculosis, UniProt P9WKE1).
T1 sequence (P9WKE1 whole entry): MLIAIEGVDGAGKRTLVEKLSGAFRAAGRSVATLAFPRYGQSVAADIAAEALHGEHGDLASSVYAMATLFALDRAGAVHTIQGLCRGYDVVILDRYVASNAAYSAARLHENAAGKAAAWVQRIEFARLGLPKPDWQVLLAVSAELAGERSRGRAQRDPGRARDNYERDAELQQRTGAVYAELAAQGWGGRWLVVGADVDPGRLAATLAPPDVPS
As to the kind of experiment: Inhibition of Mycobacterium tuberculosis H37Rv TMPK expressed in Escherichia coli by coupled enzyme based spectrophotometric analysis.

The test system of data set [2] is Mycobacterium tuberculosis. As to the kind of experiment: Antimycobacterial activity against Mycobacterium tuberculosis H37Rv ATCC 27294 assessed as inhibition of bacterial growth in presence of glucose by broth microdilution method. The data set is classed as functional.
The test system of another data set is MRC5. Nature of the data set: Cytotoxicity against human MRC-5 cells assessed as reduction in cell growth measured after 3 days by resazurin dye based fluorometric analysis. The conditions noted are these: MRC5, 72 h. On the technique in general: The colour change of resazurin is a common sign of viable cells or microbes.
Data set [3] addresses T2, Thymidylate kinase (Homo sapiens, UniProt P23919).
T2 sequence (P23919 whole entry): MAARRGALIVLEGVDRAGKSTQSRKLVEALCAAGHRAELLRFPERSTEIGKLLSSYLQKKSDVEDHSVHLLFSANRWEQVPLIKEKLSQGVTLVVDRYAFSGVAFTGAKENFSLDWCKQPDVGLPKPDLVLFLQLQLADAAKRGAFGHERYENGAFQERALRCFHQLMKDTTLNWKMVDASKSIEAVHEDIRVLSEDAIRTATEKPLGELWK
Nature of the data set: Inhibition of human TMPK at 40 uM.

For data set [4], the system named is Mycobacterium tuberculosis. As to the kind of experiment: Antibacterial activity againstMycobacterium tuberculosis H37Rv assessed as inhibition of bacterial growth in presence of efflux pump inhibitor PAbetaN and glucose […] by microdilution assay. The data set is classed as functional. (Dilution methods test growth across graded concentrations, often in twofold steps.)

In data set [5] the test system is Mycobacterium tuberculosis. As to the kind of experiment: Antibacterial activity against Mycobacterium tuberculosis H37Rv assessed as inhibition of bacterial growth in presence of efflux pump inhibitor verapamil and glucose […] by microdilution assay. The data set is classed as functional.
Data set [6] deals with T2, Thymidylate kinase. Nature of the data set: Inhibition of human TMPK at 31 uM.
The mark [7] stands for this setting: Mycobacterium tuberculosis, H37Rv ATCC 27294, read-out: MIC.
Setting [8] is: Mycobacterium tuberculosis, H37Rv, read-out: MIC.

The source of these data is ChEMBL document CHEMBL4831518, “Structure-aided optimization of non-nucleoside M. tuberculosis thymidylate kinase inhibitors” (Eur J Med Chem, 2021).

Consider `Cc1cn(C2CCN(Cc3cccc(Oc4ccc(O)cc4)n3)CC2)c(=O)[nH]c1=O`, for which the IC50 against Thymidylate kinase [1] came to 1.1 µM. The MIC in data set [2] (setting [7]) is more than 50 µM.
The like results for `Cc1cn(C2CCN(Cc3cc(Oc4cc(Cl)cc(Cl)c4)ccn3)CC2)c(=O)[nH]c1=O` were, in that order, 0.6 µM and 34 µM.
Turning to `Cc1cn(C2CCN(Cc3cccc(Oc4ccccc4)c3)CC2)c(=O)[nH]c1=O`, inhibition against Thymidylate kinase [1] was half-maximal at 6.1 µM (IC50).
`Cc1cn(C2CCN(Cc3cc(Oc4cccc(Cl)c4)ccn3)CC2)c(=O)[nH]c1=O`: the 50% inhibitory concentration (IC50) is 2.8 µM at Thymidylate kinase [1] and more than 64 µM with MRC5. The MIC in data set [2] (setting [7]) is more than 50 µM.
Turning to `Cc1cn(C2CCN(Cc3cccc(Oc4cccc(OC(F)(F)F)c4)c3)CC2)c(=O)[nH]c1=O`, the values for the IC50 at Thymidylate kinase [1] and in the data set with MRC5 were 0.65 µM and 5.26 µM, respectively. Also, in data set [2] (setting [7]), the MIC was 25 µM. For the same compound, on Thymidylate kinase [3], the “inhibition (INH)” value is reported as “Not Active”.
In the case of `Cc1cccc(Oc2cccc(CN3CCC(n4cc(C)c(=O)[nH]c4=O)CC3)c2)c1`, the values for the IC50 on Thymidylate kinase [1] and in the data set with MRC5 were 26 µM and more than 64 µM, respectively. Also, in data set [2] (setting [7]), the MIC amounted to 37 µM.
For `Cc1cn(C2CCN(Cc3cccc(Oc4cccc(C(F)(F)F)c4)c3)CC2)c(=O)[nH]c1=O`, the IC50 against Thymidylate kinase [1] turned out to be 0.6 µM; in the data set with MRC5, 12.4 µM. The MIC in data set [2] (setting [7]) was found to be 19 µM.
As to `Cc1cn(C2CCN(Cc3cccc(Oc4cc(C(F)(F)F)cc(C(F)(F)F)c4)c3)CC2)c(=O)[nH]c1=O`, the IC50 at Thymidylate kinase [1] turned out to be 0.14 µM. The MIC in data set [2] (setting [7]) was more than 50 µM.
As to `Cc1cn(C2CCN(Cc3cccc(Oc4cccc(Cl)c4)c3)CC2)c(=O)[nH]c1=O`, the IC50 at Thymidylate kinase [1] is 0.89 µM; in the data set on MRC5 it was 21 µM. In addition, the MIC in data set [2] (setting [7]) stood at 12.5 µM.
The like results for `Cc1cn(C2CCN(Cc3cccc(OC4CCCCC4)c3)CC2)c(=O)[nH]c1=O` were, in that order, 42 µM, 23.6 µM and 37 µM.
Turning to `Cc1cn(C2CCN(Cc3cccc(Oc4ccc(Cl)c(C(F)(F)F)c4)c3)CC2)c(=O)[nH]c1=O`, the IC50 amounted to 1.1 µM on Thymidylate kinase [1] and 5.28 µM with MRC5. In data set [2] (setting [7]), the MIC worked out at 25 µM. The “inhibition (INH)” value against Thymidylate kinase [3] was “Not Active”.
For the compound `Cc1cn(C2CCN(Cc3ccnc(Oc4cccc(Cl)c4)c3)CC2)c(=O)[nH]c1=O`, the IC50 was 3.1 µM against Thymidylate kinase [1] and more than 64 µM with MRC5. The minimum inhibitory concentration (MIC) came to 15.6 µg/mL in data set [4], 37 µM in data set [2] (setting [7]) and 31.25 µg/mL in data set [5].
Regarding `Cc1cn(C2CCN(Cc3cccc(Oc4ccccc4)n3)CC2)c(=O)[nH]c1=O`, the figures for the minimum inhibitory concentration (MIC) in data set [4], in data set [2] (setting [7]) and in data set [5] (setting [8]) were 62.5 µg/mL, more than 50 µM and 125 µg/mL, respectively. The IC50 in the data set with MRC5 is more than 64 µM.
Turning to `Cc1cn(C2CCN(Cc3cncc(Oc4cccc(Cl)c4)c3)CC2)c(=O)[nH]c1=O`, the IC50 against Thymidylate kinase [1] is 0.77 µM; in the data set on MRC5, more than 64 µM. For the same compound, the MIC in data set [2] (setting [7]) was determined as 31 µM.
On to `Cc1cn(C2CCN(Cc3cccc(Oc4cc(Cl)cc(Cl)c4)c3)CC2)c(=O)[nH]c1=O`, for which the figures for the IC50 on Thymidylate kinase [1] and with MRC5 were 0.12 µM and 6.73 µM, respectively. Besides, the MIC in data set [4] worked out at 7.8 µg/mL; in data set [2] (setting [7]) it was 12.5 µM; in data set [5] (setting [8]), 7.8 µg/mL. At Thymidylate kinase [3], the “inhibition (INH)” value is recorded as “Not Active”.
Take `Cc1cn(C2CCN(Cc3cccc(Oc4ccc(Cl)c(Cl)c4)c3)CC2)c(=O)[nH]c1=O`: the results for the IC50 against Thymidylate kinase [1] and with MRC5 were 1.1 µM and 6.1 µM, respectively. The MIC in data set [2] (setting [7]) turned out to be 12.5 µM. For the same compound, the “inhibition (INH)” value on Thymidylate kinase [3] is listed as “Not Active”.
With `Cc1cn(C2CCN(Cc3cccc(Oc4ccc(Cl)cc4)c3)CC2)c(=O)[nH]c1=O`, the IC50 against Thymidylate kinase [1] stood at 6.9 µM; with MRC5 it was 25.1 µM. Moreover, the minimal inhibitory concentration (MIC) in data set [2] (setting [7]) amounted to 12.5 µM.
The like results for `Cc1cn(C2CCN(Cc3cccc(OC4CCCC4)c3)CC2)c(=O)[nH]c1=O` were, in that order, 32 µM, 30.3 µM and more than 50 µM.
`Cc1cn(C2CCN(Cc3cccc(Oc4cccc(O)c4)c3)CC2)c(=O)[nH]c1=O`: in the data set on MRC5, the half-inhibitory concentration (IC50) is more than 64 µM.
On to `COc1ccc(Oc2cccc(CN3CCC(n4cc(C)c(=O)[nH]c4=O)CC3)c2)cc1`, for which the half-inhibitory concentration (IC50) came out at 10.5 µM at Thymidylate kinase [1] and 28 µM with MRC5. In addition, the minimal inhibitory concentration (MIC) worked out at 15.6 µg/mL in data set [4], 31.25 µM in data set [2] and 15.6 µg/mL in data set [5] (setting [8]).
Take `COc1cccc(Oc2cccc(CN3CCC(n4cc(C)c(=O)[nH]c4=O)CC3)c2)c1`: the IC50 against Thymidylate kinase [1] came out at 1.2 µM; with MRC5, 25.3 µM. Further, the minimal inhibitory concentration (MIC) in data set [2] (setting [7]) came out at 25 µM.
For the compound `Cc1cn(C2CCN(Cc3cccc(Oc4cccc(Cl)c4)n3)CC2)c(=O)[nH]c1=O`, the results for the half-inhibitory concentration (IC50) at Thymidylate kinase [1] and with MRC5 were 0.45 µM and more than 64 µM, respectively. The MIC in data set [2] (setting [7]) worked out at 31 µM. The “inhibition (INH)” value at Thymidylate kinase [3] is “Not Active”.
Take `Cc1cn(C2CCN(Cc3cccc(Oc4cccnc4)c3)CC2)c(=O)[nH]c1=O`: the values for the IC50 against Thymidylate kinase [1] and in the data set with MRC5 were 27 µM and more than 64 µM, respectively. In addition, the minimal inhibitory concentration (MIC) in data set [2] (setting [7]) was more than 50 µM.
The like results for `Cc1cn(C2CCN(Cc3ccnc(Oc4ccccc4)c3)CC2)c(=O)[nH]c1=O` were, in that order, 10.2 µM, more than 64 µM and more than 50 µM.
`Cc1cn(C2CCN(Cc3cccc(Oc4ccccc4C(=O)O)n3)CC2)c(=O)[nH]c1=O` yielded an IC50 at Thymidylate kinase [1] of 25 µM. For the same compound, the MIC in data set [2] (setting [7]) is more than 50 µM.
As to `Cc1cn(C2CCN(Cc3cccc(Oc4ccncc4)c3)CC2)c(=O)[nH]c1=O`, it took 20 µM to reach half-maximal inhibition against Thymidylate kinase [1] (IC50).
On to `Cc1cn(C2CCN(Cc3cncc(Oc4cccc(OC(F)(F)F)c4)c3)CC2)c(=O)[nH]c1=O`, for which the half-maximal inhibitory concentration (IC50) at Thymidylate kinase [1] was 0.81 µM; in the data set on MRC5, more than 64 µM. The minimum inhibitory concentration (MIC) in data set [2] (setting [7]) turned out to be 37 µM.
The like results for `Cc1cn(C2CCN(Cc3cccc(Oc4ccccn4)c3)CC2)c(=O)[nH]c1=O` were, in that order, 41 µM, more than 64 µM and more than 50 µM.
For the compound `Cc1cn(C2CCN(Cc3cncc(Oc4cc(Cl)cc(Cl)c4)c3)CC2)c(=O)[nH]c1=O`, the values for the IC50 against Thymidylate kinase [1] and with MRC5 were 0.22 µM and more than 64 µM, respectively. Besides, the “inhibition (INH)” value against Thymidylate kinase [6] is recorded as “Not Active”. Also, the MIC in data set [2] (setting [7]) stood at 43 µM.
For the compound `Cc1cn(C2CCN(Cc3cccc(Oc4ccc(F)c(F)c4)c3)CC2)c(=O)[nH]c1=O`, the half-maximal inhibitory concentration (IC50) against Thymidylate kinase [1] is 2.6 µM; in the data set on MRC5, more than 64 µM. For the same compound, the MIC in data set [2] (setting [7]) amounted to 19 µM.
The like results for `Cc1cn(C2CCN(Cc3cccc(Oc4cccc(F)c4)c3)CC2)c(=O)[nH]c1=O` were, in that order, 2.9 µM, more than 64 µM and 25 µM.
The like results for `Cc1cn(C2CCN(Cc3cc(Oc4ccccc4)ccn3)CC2)c(=O)[nH]c1=O` were, in that order, 8.7 µM, more than 64 µM and more than 50 µM.
In the case of `Cc1cn(C2CCN(Cc3cncc(Oc4ccccc4)c3)CC2)c(=O)[nH]c1=O`, the half-inhibitory concentration (IC50) on Thymidylate kinase [1] is 6.4 µM; in the data set with MRC5, more than 64 µM. Also, the MIC in data set [2] (setting [7]) amounted to 37 µM.
The like results for `Cc1cn(C2CCN(Cc3cccc(Oc4cc(F)cc(F)c4)c3)CC2)c(=O)[nH]c1=O` were, in that order, 2.8 µM, more than 64 µM and more than 50 µM.
For the compound `Cc1ccc(Oc2cccc(CN3CCC(n4cc(C)c(=O)[nH]c4=O)CC3)c2)cc1`, the IC50 is 12 µM against Thymidylate kinase [1] and more than 64 µM in the data set on MRC5. Moreover, the values for the minimal inhibitory concentration (MIC) in data set [4], in data set [2] (setting [7]) and in data set [5] (setting [8]) were 15.6 µg/mL, 31.2 µM and 15.6 µg/mL, respectively.

The IC50 is the concentration at which inhibition is half-maximal. As a reminder, the MIC is the smallest concentration in the dilution series that meets the test's criterion for growth inhibition.
